Drawing on patent US20210347775A1, “Deuterated Imidazo[4,5-c]quinolin-2-one Compounds and Their Use in Treating Cancer” (AstraZeneca AB, priority 2017, published 2021), this text covers IC50 for two molecules.

For one experiment, the target named is T1, ATR (Homo sapiens, UniProt Q13535).
T1 construct: endogenous in cells; host or cells: HT29 cells (ECACC #85061109)
In words: Assay b): ATR cellular potency (pChk1 Ser345 in HT29 cells after 4NQO). The note with it: Table 3 comparative data; HT29 cells, pChk1 Ser345 after 4NQO; may be geometric mean of several tests; read-out: Assay b) ATR Cell IC50. The format is cell-based. As for the experimental part:
(§1) The following assays were used to measure the effects of the compounds of the present invention: a) ATM cellular potency assay; b) PI3K cellular potency assay; c) mTOR cellular potency assay; d) ATR cellular potency assay. During the description of the assays, generally: • i. […] IC50 values were calculated using a smart fitting model in Genedata. […]
Phospho-Chk1 Ser 345 antibody (Cell Signalling Technology #2348) was diluted 150 fold in PBS containing 0.05% polysorbate/Tween and 15 μl was added to each well and incubated over night at r.t. […] After 2 h incubation at r.t., the plates were washed three times with 50 μl/well PBS, using a Biotek EL405 plate washer, and plates were then sealed with black plate seals until read. Plates were read using an ArrayScan VTI instrument, using an XF53 filter with 10× objective. […]

For a further experiment, the target named is T2, ATM (Homo sapiens, UniProt Q13315).
T2 construct: endogenous in cells; host or cells: HT29 cells (ECACC #85061109)
In words: Assay a): ATM cellular potency (pATM Ser1981 in irradiated HT29 cells). Format: cell-based. The following applies: Table 2; HT29 cells, pATM Ser1981 after X-ray irradiation; may be geometric mean of several tests; read-out: Assay a) ATM Cell IC50. How it is done:
as §1
The rationale of the pATM assay is to identify inhibitors of ATM in cells. […] The fluorescence is read on the arrayscan imaging platform. […]
Phospho-ATM Ser1981 antibody (Millipore #MAB3806) was diluted 10000 fold in PBS containing 0.05% polysorbate/Tween and 3% BSA and 20 μl was added to each well and incubated over night at r.t. […] After 1 h incubation at r.t., the plates were washed three times with 50 μl/well PBS, using a Biotek EL405 plate washer, and plates were sealed and kept in PBS at 4° C. until read. Plates were read using an ArrayScan VTI instrument, using an XF53 filter with 10× objective. […]

T2 sequence (Q13315 whole entry): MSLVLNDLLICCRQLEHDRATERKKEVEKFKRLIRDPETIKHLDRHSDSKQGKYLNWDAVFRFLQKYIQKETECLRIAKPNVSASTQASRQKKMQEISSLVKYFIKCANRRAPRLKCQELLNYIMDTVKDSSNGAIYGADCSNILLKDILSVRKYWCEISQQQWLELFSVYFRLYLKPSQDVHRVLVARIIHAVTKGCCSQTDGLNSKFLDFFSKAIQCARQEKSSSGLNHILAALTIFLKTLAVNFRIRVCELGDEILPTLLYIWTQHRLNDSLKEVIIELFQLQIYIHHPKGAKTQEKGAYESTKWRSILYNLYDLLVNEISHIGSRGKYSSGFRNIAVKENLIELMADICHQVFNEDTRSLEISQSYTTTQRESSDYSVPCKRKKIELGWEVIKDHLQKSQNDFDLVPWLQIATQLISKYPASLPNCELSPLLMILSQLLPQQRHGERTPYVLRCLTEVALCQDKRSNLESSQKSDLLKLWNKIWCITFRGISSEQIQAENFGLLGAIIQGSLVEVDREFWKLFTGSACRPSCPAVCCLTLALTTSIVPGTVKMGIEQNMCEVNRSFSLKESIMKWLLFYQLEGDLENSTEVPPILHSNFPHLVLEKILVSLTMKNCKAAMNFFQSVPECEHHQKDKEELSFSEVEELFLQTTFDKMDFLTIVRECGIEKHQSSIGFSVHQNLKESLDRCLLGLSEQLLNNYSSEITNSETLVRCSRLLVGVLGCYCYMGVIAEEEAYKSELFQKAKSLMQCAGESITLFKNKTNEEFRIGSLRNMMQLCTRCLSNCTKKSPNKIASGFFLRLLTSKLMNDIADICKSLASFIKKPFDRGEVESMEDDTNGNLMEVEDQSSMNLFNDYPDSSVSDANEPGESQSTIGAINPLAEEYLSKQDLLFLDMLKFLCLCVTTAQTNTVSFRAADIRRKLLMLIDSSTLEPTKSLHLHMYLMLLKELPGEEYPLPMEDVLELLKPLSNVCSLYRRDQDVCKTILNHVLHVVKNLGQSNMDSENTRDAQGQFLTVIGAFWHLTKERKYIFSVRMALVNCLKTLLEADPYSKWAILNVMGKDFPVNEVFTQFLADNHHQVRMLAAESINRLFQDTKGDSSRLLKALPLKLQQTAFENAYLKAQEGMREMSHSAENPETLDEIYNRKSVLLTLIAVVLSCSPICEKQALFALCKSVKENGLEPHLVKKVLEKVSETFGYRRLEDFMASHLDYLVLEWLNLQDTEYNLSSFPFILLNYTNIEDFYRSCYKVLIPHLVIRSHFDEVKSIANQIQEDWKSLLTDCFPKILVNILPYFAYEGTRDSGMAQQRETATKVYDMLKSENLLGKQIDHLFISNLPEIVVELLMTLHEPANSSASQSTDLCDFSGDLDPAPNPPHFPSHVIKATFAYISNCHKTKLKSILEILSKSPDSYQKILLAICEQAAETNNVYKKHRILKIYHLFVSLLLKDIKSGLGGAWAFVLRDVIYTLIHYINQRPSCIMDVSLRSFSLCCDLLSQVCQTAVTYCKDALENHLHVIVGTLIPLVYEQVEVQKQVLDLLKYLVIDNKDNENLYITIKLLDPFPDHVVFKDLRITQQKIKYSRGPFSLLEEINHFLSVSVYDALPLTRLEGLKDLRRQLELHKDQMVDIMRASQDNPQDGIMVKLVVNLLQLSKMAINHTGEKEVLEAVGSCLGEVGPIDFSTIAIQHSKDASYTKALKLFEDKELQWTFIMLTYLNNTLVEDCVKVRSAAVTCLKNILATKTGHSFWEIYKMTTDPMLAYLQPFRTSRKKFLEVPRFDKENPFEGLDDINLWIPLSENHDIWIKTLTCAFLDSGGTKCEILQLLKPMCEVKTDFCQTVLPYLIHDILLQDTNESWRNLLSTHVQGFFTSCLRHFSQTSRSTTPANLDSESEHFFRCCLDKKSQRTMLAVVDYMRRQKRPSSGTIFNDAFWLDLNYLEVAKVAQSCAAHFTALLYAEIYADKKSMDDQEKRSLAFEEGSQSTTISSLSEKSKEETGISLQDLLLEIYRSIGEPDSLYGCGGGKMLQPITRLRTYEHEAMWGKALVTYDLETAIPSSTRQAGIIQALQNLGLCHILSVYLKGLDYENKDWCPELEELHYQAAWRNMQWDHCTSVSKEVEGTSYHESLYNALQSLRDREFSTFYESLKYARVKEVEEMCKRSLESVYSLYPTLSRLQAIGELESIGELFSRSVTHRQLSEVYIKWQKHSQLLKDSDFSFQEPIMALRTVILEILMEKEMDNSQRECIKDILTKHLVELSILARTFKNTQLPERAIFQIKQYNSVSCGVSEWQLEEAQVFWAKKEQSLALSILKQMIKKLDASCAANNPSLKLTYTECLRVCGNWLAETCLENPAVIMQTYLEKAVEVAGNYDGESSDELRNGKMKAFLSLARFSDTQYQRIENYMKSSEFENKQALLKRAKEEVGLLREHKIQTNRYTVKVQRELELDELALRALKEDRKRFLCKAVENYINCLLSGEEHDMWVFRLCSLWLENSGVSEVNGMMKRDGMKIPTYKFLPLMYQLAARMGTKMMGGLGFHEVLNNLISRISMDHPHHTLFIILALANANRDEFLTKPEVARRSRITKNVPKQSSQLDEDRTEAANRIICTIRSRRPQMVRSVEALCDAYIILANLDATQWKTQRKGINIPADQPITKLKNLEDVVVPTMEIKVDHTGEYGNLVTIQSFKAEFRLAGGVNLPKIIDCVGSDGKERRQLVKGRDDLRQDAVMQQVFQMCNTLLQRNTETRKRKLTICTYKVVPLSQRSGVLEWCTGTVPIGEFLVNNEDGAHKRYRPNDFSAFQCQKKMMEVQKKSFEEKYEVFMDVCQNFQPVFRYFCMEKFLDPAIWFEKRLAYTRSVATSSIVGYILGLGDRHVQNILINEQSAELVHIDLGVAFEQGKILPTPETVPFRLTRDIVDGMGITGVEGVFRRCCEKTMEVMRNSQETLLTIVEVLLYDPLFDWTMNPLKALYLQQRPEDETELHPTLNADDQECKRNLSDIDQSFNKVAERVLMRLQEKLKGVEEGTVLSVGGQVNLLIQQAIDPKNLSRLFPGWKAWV

For `Cn1c(=O)n(C2CCOCC2)c2c3cc(-c4cnn(CCCO)c4)ccc3ncc21` [CN102399218A Compound 60], on ATR, the IC50 stood at 419 nM. Turning to `[2H]c1c(F)c(-c2ccc(OCCCN3CCCCC3)nc2)cc2c1nc([2H])c1c2n(C(C)C)c(=O)n1C` [Example 1, 4,6-Dideuterio-7-fluoro-1-isopropyl-3-methyl-8-[6-[3-(1-piperidyl)propoxy]-3-pyridyl]imidazo[4,5-c]quinolin-2-one], the 50% inhibitory concentration (IC50) on ATM amounted to 2.5 nM.

In general, IC50 refers to the concentration that gives 50% inhibition.
